Test results: ChEMBL document CHEMBL1201862, “PubChem BioAssay data set” (2004)
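Results reflect a 48-hour exposure of cells in 96-well plates to compound at five concentrations. GI50: concentration for 50% inhibition of growth.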 Activity calls are given as the source filed them. Rule as the data show it: active = GI50 up to about 1.1 µM and inactive = higher.

What was measured:
Assay in all cases: NCI anticancer screen, dose series, 48 h
KM-20L2 = system: KM-20L2
DMS-273 = system: DMS-273
SNB-78 = system: SNB-78
DMS-114 = system: DMS-114
HOP-18 = system: HOP-18
M19-MEL = system: M19-MEL
LXFL 529 = system: LXFL 529
DLD-1 = system: DLD-1
RXF 631 = system: RXF 631

| SMILES | GI50 (KM-20L2) | GI50 (DMS-273) | GI50 (SNB-78) | GI50 (DMS-114) | GI50 (HOP-18) | GI50 (M19-MEL) | GI50 (LXFL 529) | GI50 (DLD-1) | GI50 (RXF 631) |
| --- | --- | --- | --- | --- | --- | --- | --- | --- | --- |
| CC(/C=C/C(=O)c1sc(-n2nc(-c3ccccc3)cc2-c2ccccc2)nc1C)=C\c1ccccc1 | 20.7 µM (inactive) | > 10 µM (inactive) | > 10 µM (inactive) | 16.9 µM (inactive) | > 10 µM (inactive) | 75 µM (inactive) | 38.4 µM (inactive) | 29.9 µM (inactive) | 65.9 µM (inactive) |
| COc1cc([C@@H]2c3cc4c(cc3[C@@H](OC3OC5COC(C)OC5C(O)C3O)[C@H]3COC(=O)[C@H]23)OCO4)cc(OC)c1O (some centres not stated) | 70.8 µM (inactive) | 1.97 µM (inactive) | 46.8 µM (inactive) | 5.57 µM (inactive) | 28.3 µM (inactive) | 34.7 µM (inactive) | 26.5 µM (inactive) | 37.2 µM (inactive) |  |
| COC(=O)C12OCC34C(CC5C(C)=C(O)C(=O)CC5(C)C3C(O)C1O)OC(=O)C(OC(=O)C=C(C)C)C24 (configuration not stated) | > 500 µM (inactive) | > 500 µM (inactive) | > 476 µM (inactive) | 167 µM (inactive) | > 500 µM (inactive) | 287 µM (inactive) |  | 108 µM (inactive) |  |
| COC(=O)c1ccc(OCc2ccc3nc(OC)c(OC)nc3c2)cc1 |  | > 100 µM (inactive) | > 100 µM (inactive) | 52.8 µM (inactive) | > 100 µM (inactive) | > 100 µM (inactive) |  | > 100 µM (inactive) |  |
| CCC(C)C1NC(=O)CNC(=O)C2Cc3c([nH]c4cc(O)ccc34)[S+]([O-])CC(NC(=O)CNC1=O)C(=O)NC(CC(=O)O)C(=O)N1CC(O)CC1C(=O)NC(C(C)C(O)CO)C(=O)N2 (configuration not stated) | 31.6 µM (inactive) | 2.23 µM (inactive) | 0.664 µM (active) | 0.759 µM (active) | 25.8 µM (inactive) | 3.24 µM (inactive) |  | 12.4 µM (inactive) |  |
| O=C(c1cc2c(C(F)(F)F)onc2c2ccccc12)C(F)(F)F | 1.22 µM (inactive) | 1.49 µM (inactive) | 0.236 µM (active) | 2.15 µM (inactive) | 6.47 µM (inactive) | 3.1 µM (inactive) | 0.347 µM (active) | 0.484 µM (active) | 2.38 µM (inactive) |
| COc1ccc(CC(N)=O)cc1OC | > 1140 µM (inactive) | > 1250 µM (inactive) | > 1250 µM (inactive) | > 1250 µM (inactive) | 881 µM (inactive) | > 1250 µM (inactive) |  | > 1250 µM (inactive) |  |
| CCCCCCCCCCCCCCCC(=O)OCC(C[As](=O)(O)O)OC(=O)CCCCCCCCCCCCCCC (configuration not stated) | > 100 µM (inactive) | > 100 µM (inactive) | 22.4 µM (inactive) | 70.6 µM (inactive) | > 100 µM (inactive) | > 100 µM (inactive) | > 100 µM (inactive) | > 100 µM (inactive) | 54.7 µM (inactive) |
| CN(CCO)/N=N/c1n[nH]cc1C(N)=O | > 86.7 µM (inactive) | > 100 µM (inactive) | > 100 µM (inactive) | > 100 µM (inactive) | > 100 µM (inactive) | > 100 µM (inactive) |  | > 100 µM (inactive) |  |
| C=CCONC(=O)c1ccc(Cl)cc1 | > 100 µM (inactive) |  | > 100 µM (inactive) | > 100 µM (inactive) | > 100 µM (inactive) | > 100 µM (inactive) | > 100 µM (inactive) | > 100 µM (inactive) | > 100 µM (inactive) |
| CC1(c2cccc(C3CCC4(C=CC3=O)OCCO4)c2)OCCO1 (configuration not stated) | 4.07 µM (inactive) | 10.9 µM (inactive) | 19.4 µM (inactive) | 1.8 µM (inactive) |  | 5.62 µM (inactive) | 1.62 µM (inactive) | 3.35 µM (inactive) |  |
| CCN(CC)c1ccc2c(c1)Nc1cc(=C(C#N)C#N)c3ccccc3c1=N2 | > 100 µM (inactive) | > 100 µM (inactive) | > 100 µM (inactive) | > 100 µM (inactive) | > 100 µM (inactive) | > 100 µM (inactive) | > 100 µM (inactive) | > 100 µM (inactive) | > 100 µM (inactive) |
| O=[N+]([O-])c1cccc2c1[nH]c1c(-c3ccccc3)nccc12 | 2.45 µM (inactive) | 2.43 µM (inactive) |  | 1.27 µM (inactive) | 0.274 µM (active) | 2.07 µM (inactive) |  | 2.85 µM (inactive) |  |
| CCOC(=O)C(C#N)(Cc1c[nH]c2ccccc12)NC(C)=O (configuration not stated) | > 100 µM (inactive) | > 100 µM (inactive) |  | > 100 µM (inactive) |  | > 100 µM (inactive) | > 100 µM (inactive) | > 100 µM (inactive) |  |
| CN(C)CCNC(=O)c1cccc2[nH]c(-c3ccccn3)nc12 | 25.6 µM (inactive) | 26 µM (inactive) | 34.9 µM (inactive) | 27 µM (inactive) | 29 µM (inactive) | 29.7 µM (inactive) |  | 33.7 µM (inactive) |  |
| CC1OC(OC2CC(O)(C(=O)CO)Cc3c(O)c4c(c(O)c32)C(=O)c2ccccc2C4=O)CC(N)C1O (configuration not stated) | < 0.0117 µM (active) | < 0.01 µM (active) | 0.0637 µM (active) | < 0.01 µM (active) | < 0.01 µM (active) | < 0.01 µM (active) | < 0.0238 µM (active) | < 0.01 µM (active) | 0.0102 µM (active) |

| SMILES | GI50 (KM-20L2) | GI50 (DMS-273) | GI50 (SNB-78) | GI50 (DMS-114) | GI50 (HOP-18) | GI50 (M19-MEL) | GI50 (LXFL 529) | GI50 (DLD-1) | GI50 (RXF 631) |
| --- | --- | --- | --- | --- | --- | --- | --- | --- | --- |
| CCN(c1ccc(Br)cc1)c1c(Br)c(=O)nc2ccccn12 | > 100 µM (inactive) | 83.2 µM (inactive) | > 100 µM (inactive) | 70.6 µM (inactive) |  | > 100 µM (inactive) | > 100 µM (inactive) | > 100 µM (inactive) | > 100 µM (inactive) |
| OCC#CCNCl | > 100 µM (inactive) | > 100 µM (inactive) | > 100 µM (inactive) | > 100 µM (inactive) | > 100 µM (inactive) | > 100 µM (inactive) |  | > 100 µM (inactive) |  |
| CN(C)C(=S)/N=c1\sn(C)/c(=N\C(=S)N(C)C)n1C | > 100 µM (inactive) | 36.7 µM (inactive) | > 100 µM (inactive) |  | > 100 µM (inactive) | 25.8 µM (inactive) | > 100 µM (inactive) | > 100 µM (inactive) | > 100 µM (inactive) |
| C=C(CO)CC(O)c1ccccc1 (configuration not stated) | > 100 µM (inactive) | > 100 µM (inactive) | > 100 µM (inactive) | > 100 µM (inactive) |  | > 100 µM (inactive) | > 100 µM (inactive) | > 100 µM (inactive) | > 100 µM (inactive) |
| O=C1C2CN(Cc3ccccc3)CC1CN(CC1CC1)C2 | > 100 µM (inactive) | > 100 µM (inactive) |  | > 100 µM (inactive) | > 100 µM (inactive) | > 100 µM (inactive) | > 100 µM (inactive) |  |  |
| CC(=O)OCCOCNC(=S)N/N=C/c1ccc([N+](=O)[O-])o1 | 26.4 µM (inactive) | 37.9 µM (inactive) | > 100 µM (inactive) | 17.1 µM (inactive) | > 100 µM (inactive) | 15.7 µM (inactive) | 77.6 µM (inactive) | 53.1 µM (inactive) | 58.7 µM (inactive) |
| Cc1c(Cl)ccc2c1NC(=O)C2(O)CC(=O)c1ccc(Cl)cc1Cl (configuration not stated) | > 50 µM (inactive) | > 50 µM (inactive) | 21.8 µM (inactive) | 38.5 µM (inactive) |  | > 50 µM (inactive) | 27.8 µM (inactive) |  | 31 µM (inactive) |
| c1cc(-c2cn3c(n2)SCC3)ccn1 | > 100 µM (inactive) | 28.3 µM (inactive) | > 100 µM (inactive) | > 55 µM (inactive) | > 100 µM (inactive) | > 60 µM (inactive) | > 90.6 µM (inactive) | > 75.7 µM (inactive) |  |
| O=C1C(c2ccccc2)=C(c2ccccc2)C(c2ccc(CCCCCCc3ccc(C4=C(c5ccccc5)C(=O)C(c5ccccc5)=C4c4ccccc4)cc3)cc2)=C1c1ccccc1 | > 100 µM (inactive) | > 100 µM (inactive) | > 100 µM (inactive) | > 100 µM (inactive) |  | > 100 µM (inactive) | > 100 µM (inactive) | > 100 µM (inactive) | > 100 µM (inactive) |
| COc1ccccc1NC(=O)C1=C(C)NC(C)=C(C(=O)Nc2ccccc2OC)C1c1ccc(C(C)C)cc1 | 48.4 µM (inactive) | 59.7 µM (inactive) |  |  | > 100 µM (inactive) | > 100 µM (inactive) | > 100 µM (inactive) | > 100 µM (inactive) | > 100 µM (inactive) |
| COc1ccc(/C=N/NS(=O)(=O)c2ccccc2)cc1 | > 100 µM (inactive) | > 100 µM (inactive) | > 100 µM (inactive) | 63.1 µM (inactive) | > 100 µM (inactive) | > 100 µM (inactive) | > 100 µM (inactive) | > 100 µM (inactive) |  |
| Cc1nc(-n2nc(-c3ccccc3)cc2-c2ccccc2)sc1C(=O)CC(=O)C(=O)Nc1ccc(Cl)c(Cl)c1 | 45.8 µM (inactive) | 59.8 µM (inactive) | > 100 µM (inactive) | 33.6 µM (inactive) | > 100 µM (inactive) | > 100 µM (inactive) | 45.1 µM (inactive) | 34 µM (inactive) | > 100 µM (inactive) |
| CC[C@@H]1NC(C(=O)OC)Cc2c1[nH]c1ccccc21 (some centres not stated) | > 100 µM (inactive) | > 100 µM (inactive) | > 100 µM (inactive) | > 100 µM (inactive) | > 100 µM (inactive) | > 100 µM (inactive) | > 100 µM (inactive) | > 100 µM (inactive) | > 100 µM (inactive) |
| CN1C(=O)C2C(C1=O)C1(O)c3ccccc3C2(N)c2ccccc21 (configuration not stated) |  | > 100 µM (inactive) | > 100 µM (inactive) | > 100 µM (inactive) | > 100 µM (inactive) | > 100 µM (inactive) |  | > 100 µM (inactive) | > 100 µM (inactive) |
| CS(=O)(=O)N(N(CCCl)S(=O)(=O)c1ccccc1)S(C)(=O)=O | > 100 µM (inactive) | > 100 µM (inactive) |  |  | 31 µM (inactive) | > 100 µM (inactive) | > 100 µM (inactive) | > 100 µM (inactive) | > 100 µM (inactive) |
